# Reference: patent US6482827B1, “Matrix metalloproteinase inhibitors” (Pharmacia & Upjohn S.p.A., priority 1997, dated 2002)
# How the values were obtained:
# [1] = target: T1, Human stromelysin-1-255 (MMP-3) (Homo sapiens, UniProt P08254); assay: Biochemical assay (Protocol A), Ki at steady state, MMP-3; details: preincubation, 37° C., pH=7.4, read-out: Ki at steady state (Ki*) for inhibition of MMP-3
# T1 construct: host or cells: E. coli
# Protocol: (§1) Human gelatinase-A (MMP-2) was obtained as pro-enzyme (72 kDa) and was activated with 1 mM 4-aminophenylmercuric acetate for 30 min at 37° C. immediately prior to use. Human stromelysin-1-255 (MMP-3) was obtained as a recombinant pro-enzyme isolated from E. coli and activated by heat (1 h, 55° C.).
# (§2) The substrate was the commercial quenched-fluorescence peptide Mca-Pro-Leu-Gly-Leu-Dpa-Ala-Arg-NH2, that is (7-methoxycoumarin4-yl)Acetyl-Pro-Leu-Glv-Leu-(3-[2,4-dinitrophenyl]-L-2,3-diamino-propionyl)-Ala-Arg-NH2 (C. G. Knight et al., FEBS Lett.296:263, 1992). The enzymes cleave at the Gly-Leu bond, removing the internally quenching Dpa group. Release of the highly fluorescent peptide Mca-Pro-Leu was followed fluorimetrically at 37° C. using a Perkin Elmer LS-50 Fluorescence Spectrophotometer fitted with a thermostatted four position stirring cell changer. The excitation wavelength was set at 326 nm (bandwidth 5 nm) and the emission at 392 nm (bandwidth 20 nm). Km values of this substrate for the three MMP's is 70 μM or more (Knight et al., reference above). Substrate concentration was 2 μM in the tests, so that we could approximate to unit the term (1+[substrate]/KM) in calculations. The substrate was stable for over 60 minutes in the assay conditions, giving no appreciable increment of fluorescence. Full response was adjusted against 200 nM Mca-Pro-Leu-OH (the released fluorescent peptide) and the instrument was calibrated in the range 0-100 nM Mca-Pro-Leu-OH, corresponding to 0-5% extent of hydrolysis of the 2 μM substrate. The aqueous assay buffer was 50 mM Tris/HCl pH=7.4 containing 0.15 M NaCl, 10 mM CaCl2, 0.01 mM ZnCl2 and 0.05% Brij 35. The concentration of the activated enzyme was determined by titration against representative inhibitors described in the literature and synthesized in house: Roche Ro31-9790 (N. G. Knebel et al., J. Chromatogr. B 673:213, 1995) for MMP-1, and Celltech CT-1418 (compound 1 in S. K. Chander, J. Pharm. Sci. 84:404, 1995) for MMP-2 and MMP-3. Enzyme concentrations in the tests were set at 1.0 nM for MMP-1, 0.04 nM for MMP-2, and 3.0 nM for M-3. Under our assay conditions, we measured keat/KM values of 26900, 669000 and 9740 1/(M×s) for MMP-1, MMP-2 and MMP-3, respectively. All the three enzymes were found stable for over three hours in the assay conditions.
# (§3) The inhibition constant for compounds of the present invention was measured at steady state (Ki*; see J. F. Morrison and C. T. Walsh, Adv. Enzymol. Relat. Areas Mol. Biol. 61:201, 1988), upon preincubation experiment, by measuring V0, the initial rate in the absence of inhibitor, and Vs, the steady-state velocity, at different concentrations of inhibitors in the region of their enzyme-inhibitor dissociation constants.
# (§4) On a routine basis, 1.94 mL of assay buffer was pre-heated at 37° C. in a vial, 0.02 mL of inhibitor in DMSO (or DMSO only), and 0.02 ml of 100 nM MMP-1 or 4 nM MMP-2 or 300 nM MMP-3 were added, mixed, and the vial was held at 37° C. for 5-180 minutes. Then 0.02 ml of 0.2 mM substrate was added, mixed and transferred into a pre-heated cell. The sample was allowed to equilibrate in the cuvette for 3-5 min at 37° C. against small changes in temperature and changes in the enzyme-inhibitor equilibria related to addition of substrate. After that, the linear increase of fluorescence was monitored over 3-5 min, and the slope (Vo or Vs) was obtained. Inhibitor concentrations were varied to collect data over Vs/Vo ratio ranging from 0.05 to 0.95. The values of Ki* were calculated by nonlinear weighted regression to the tight-binding equation according to Morrison and Walsh above:
# (§5) Vs/Vo=[1/(2×Et)]×SQR[(Ki*+It−Et)^2+4×Ki*×Et]−(Ki*+It−Et)
# (§6) wherein Et is the total enzyme concentration, and It is the total inhibitor concentration. The following Table I lists Ki* obtained for some representative examples: […]
# [2] = target: T2, Human collagenase (MMP-1) (Homo sapiens, UniProt P03956); assay: Biochemical assay (Protocol A), Ki at steady state, MMP-1; details: preincubation, 37° C., pH=7.4, read-out: Ki at steady state (Ki*) for inhibition of MMP-1
# T2 sequence (P03956 101-269): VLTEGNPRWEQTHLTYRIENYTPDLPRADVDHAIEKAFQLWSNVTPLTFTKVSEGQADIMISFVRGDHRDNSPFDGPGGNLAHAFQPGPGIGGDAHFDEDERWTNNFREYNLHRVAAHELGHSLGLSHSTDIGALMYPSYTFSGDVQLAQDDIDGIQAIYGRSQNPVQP
# Protocol: as §1, §2, §3, §4, §5, §6
# [3] = target: T3, Human gelatinase-A (MMP-2) (Homo sapiens, UniProt P08253); assay: Biochemical assay (Protocol A), Ki at steady state, MMP-2; details: preincubation, 37° C., pH=7.4, read-out: Ki at steady state (Ki*) for inhibition of MMP-2
# T3 sequence (P08253 110-660): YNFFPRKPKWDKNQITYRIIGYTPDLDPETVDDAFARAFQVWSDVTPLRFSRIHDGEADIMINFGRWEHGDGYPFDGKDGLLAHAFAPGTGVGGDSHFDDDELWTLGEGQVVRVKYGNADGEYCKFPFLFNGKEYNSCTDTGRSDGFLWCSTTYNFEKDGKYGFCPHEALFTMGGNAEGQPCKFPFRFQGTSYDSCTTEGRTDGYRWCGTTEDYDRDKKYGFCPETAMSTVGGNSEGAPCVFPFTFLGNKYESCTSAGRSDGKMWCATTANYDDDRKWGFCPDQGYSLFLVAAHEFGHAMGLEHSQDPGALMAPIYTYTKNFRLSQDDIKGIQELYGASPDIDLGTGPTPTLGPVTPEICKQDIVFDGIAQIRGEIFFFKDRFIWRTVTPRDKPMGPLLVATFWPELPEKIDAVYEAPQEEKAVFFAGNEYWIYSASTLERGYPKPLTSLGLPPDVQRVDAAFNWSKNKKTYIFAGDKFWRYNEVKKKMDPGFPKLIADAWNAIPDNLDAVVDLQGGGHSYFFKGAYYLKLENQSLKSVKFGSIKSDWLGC
# Protocol: as §1, §2, §3, §4, §5, §6
# T1 sequence (P08254 100-255 limits assumed): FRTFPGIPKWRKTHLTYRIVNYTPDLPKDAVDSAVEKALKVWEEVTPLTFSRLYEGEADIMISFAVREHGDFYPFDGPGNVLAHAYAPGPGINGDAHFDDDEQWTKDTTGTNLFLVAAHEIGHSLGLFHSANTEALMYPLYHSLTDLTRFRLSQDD
Ki [1],Ki [2],Ki [3],SMILES
500 nM,2600 nM,37 nM,"COc1ccc(CCC[C@@H](C(=O)N[C@H](C)C2CCCCC2)[C@H](N)C(=O)NO)cc1 [Example 32, (3S-Amino-4-hydroxyamino-2R-(4-methoxy)phenpropyl)succinyl-(1R-cyclohexylethyl)amide]"
6600 nM,> 10000 nM,460 nM,"COc1ccc(CCC[C@@H](C(=O)N[C@@H](C)C2CCCCC2)[C@H](N)C(=O)NO)cc1 [Example 33, (3S-Amino-4-hydroxyamino-2R-(4-methoxy)phenpropyl)succinyl-(1S-cyclohexylethyl)amide]"
1400 nM,2400 nM,21 nM,"COc1ccc(CCC[C@@H](C(=O)N2CCC(C(=O)NC(C)(C)C)CC2)[C@H](N)C(=O)NO)cc1 [Example 34, (3S-Amino-4-hydroxyamino-2R-(4-methoxy)phenpropyl)succinyl-(4-tert-butylaminocarbonyl)piperidinamide]"
31 nM,2.9 nM,8 nM,"CN(C)[C@H](C(=O)NO)[C@@H](CC1CCCC1)C(=O)N1CCN(Cc2ccc3c(c2)OCO3)CC1 [Example 35, (2R-Cyclopentylmethyl-3S-N,N-dimethylamino-4-hydroxyamino)succinyl-(4-piperonyl)-piperazinamide]"
35 nM,1.8 nM,2.6 nM,"COc1ccc(S(=O)(=O)N[C@H](C(=O)NO)[C@@H](CC2CCCC2)C(=O)N2CCN(Cc3ccc4c(c3)OCO4)CC2)cc1 [Example 37, (2R-Cyclopentylmethyl-4-hydroxyamino-3S-(4-methoxyphenyl)sulfonylamino)succinyl-(4-piperonyl)piperazinamide]"
806 nM,760 nM,90 nM,"COc1ccc(CCC[C@@H](C(=O)N2CCCCC2)[C@H](NCc2cccnc2)C(=O)NO)cc1 [Example 39, (4-Hydroxyamino-2R-(4-methoxy)phenpropyl-3S-(3-pyridyl)methylamino)succinyl-piperidinamide]"
760 nM,1400 nM,16 nM,"COc1ccc(CCC[C@@H](C(=O)N2CCN(c3ccccn3)CC2)[C@H](N)C(=O)NO)cc1 [Example 42, (3S-Amino-4-hydroxyamino-2R-(4-methoxy)phenpropyl)succinyl-4-(2-pyridyl)piperazinamide]"
–,7.8 nM,66 nM,"O=C(NO)[C@@H](NS(=O)(=O)c1ccc(F)cc1)[C@@H](CC1CCCC1)C(=O)N1CCCCC1 [Example 61, (2R-Cyclopentylmethyl-3S-(4-fluorophenylsulfonyl)amino-4-hydroxyamino)succinylpiperidinamide]"

# The remaining lines, values behind:
SMILES,Ki [1],Ki [2],Ki [3]
"COc1ccc(CCC[C@@H](C(=O)N2CCOCC2)[C@H](NC(=O)OC(C)(C)C)C(=O)NO)cc1 [Example 15, (3S-tert-Butoxycarbonylamino-4-hydroxyamino-2R-(4-methoxy)phenpropyl)succinyl-morpholinamide]",6500 nM,17000 nM,630 nM
"COc1ccc(CCC[C@@H](C(=O)N2CCCCC2)[C@H](NC(=O)OC(C)(C)C)C(=O)NO)cc1 [Example 17, (3S-tert-Butoxycarbonylamino-4-hydroxyamino-2R-(4-methoxy)phenpropyl)succinyl-piperidinamide]",4300 nM,9400 nM,610 nM
"COc1ccc(CCC[C@@H](C(=O)N2CCOCC2)[C@H](NS(=O)(=O)c2ccc(OC)cc2)C(=O)NO)cc1 [Example 20, (4-Hydroxyamino-3S-(4-methoxyphenylsulfonyl)amino-2R-(4-methoxy)phenpropyl)succinyl-morpholinamide]",390 nM,2000 nM,40 nM
"COc1ccc(S(=O)(=O)N[C@H](C(=O)NO)[C@@H](CC2CCCC2)C(=O)N2CCCCC2)cc1 [Example 23, (2R-Cyclopentylmethyl-4-hydroxyamino-3S-(4-methoxyphenylsulfonyl)amino)succinyl-piperidinamide]",145 nM,3 nM,16 nM
"CC(C)C[C@@H](C(=O)NC(C1CCCCC1)C1CCCCC1)[C@H](N)C(=O)NO [Example 24, (3S-Amino-4-hydroxyamino-2R-isobutyl)succinyl-dicyclohexylmethylamide]",11000 nM,170 nM,400 nM
"CC(C)C[C@@H](C(=O)NC(c1ccccc1)c1ccccc1)[C@H](N)C(=O)NO [Example 25, (3S-Amino-4-hydroxyamino-2R-isobutyl)succinyl-diphenylmethylamide]",2300 nM,76 nM,190 nM
"CC(C)(C)OC(=O)N[C@H](C(=O)NO)[C@@H](CC1CCCC1)C(=O)N1CCN(Cc2ccc3c(c2)OCO3)CC1 [Example 26, (3S-tert-Butoxycarbonylamino-2R-cyclopentylmethyl-4-hydroxyamino)succinyl-(4-piperonyl)piperazinamide]",600 nM,71 nM,100 nM
"COc1ccc(CCC[C@@H](C(=O)N2CCC2)[C@H](N)C(=O)NO)cc1 [Example 28, (3S-Amino-4-hydroxyamino-2R-(4-methoxy)phenpropyl)succinyl-azetidinamide]",10000 nM,7500 nM,600 nM
"CN(C)[C@H](C(=O)NO)[C@@H](CC1CCCC1)C(=O)N1CCCCC1 [Example 30, (2R-Cyclopentylmethyl-3S-N,N-dimethylamino-4-hydroxyamino)succinyl-piperidinamide]",270 nM,3.6 nM,25 nM
"CNC(=O)[C@H](Cc1ccccc1)N(C)C(=O)[C@H](CC(C)C)[C@H](N)C(=O)NO [Example 44, (3S-Amino-4-hydroxyamino-2R-isobutyl)succinyl-N-methyl-N-(1S-methylaminocarbonyl-2-phenyl)ethylamide]",210 nM,8.9 nM,2.3 nM
